These results are taken from US20240287351A1, “ENGINEERED MULTIFUNCTIONAL PARTICLES AND THIN DURABLE COATINGS COMPRISING CROSSLINKED SILANE POLYMERS CONTAINING UREA” (Bar-Ilan University, priority 2020, published 2024).

This assay has as its system microorganisms. The assay can be described thus: Antimicrobial activity after organic materials and repetitive microbial loading cycles. The settings on record: after exposure to organic materials and repetitive microbial loading cycles.

For `[Na+].[O-]Cl` [bleach, sodium hypochlorite], the “retention of antimicrobial activity” value is “losing its biocidal activity rapidly”.
